Data on 4 compounds can be found in patent publication US7674486B2, “Synergistic composition for the treatment of diabetes mellitus” (Indus Biotech Pvt. Ltd., priority 2003, dated 2010).

Experiment [1] has as its system pancreas (potassium channel mediated insulin secretion). The experiment in a line: K+ ions in pancreas homogenate by Biolyte analyser. It is filed as in vivo, mouse. The conditions noted are these: pancreas homogenate at 1 hour; oral: Total amino acids 10 mg/kg, Trigonelline 75 mg/kg, Glyburide 10 mg/kg, Composition 30 mg/kg. On the procedure:
EXPERIMENT 6:—The effect of the composition prepared as per Experiment 1 & 2 as well as their individual components separated on column chromatography were studied on normal Swiss Albino mice (male) in the weight range of 25-30 gms for GTT. The animals were fed in the following manner. • 1) Administration of 2 gm/kg of glucose by Inter Peritonially. • 2) Administration of the drug (Orally):
• 3) Measurement of BSL at 0 minutes & 1 hour. • 4) Immediately after blood removal at 1 hour, the animals were sacrificed by tail flicking and the pancreas was removed and homogenized using tris buffer. After centrifugation, the homogenate was characterized by thin layer chromatography and K^+ Ions by Biolyte analyser. Following are the observations:
Decreased K+ ion concentration indicates the repolarisation effect as the ATP dependant IK-ATP

Experiment [2] relates to normal Swiss Albino mice. The experiment in a line: GTT in normal Swiss Albino mice (BSL). In kind it is in vivo, mouse. The conditions noted are these: glucose 2 gm/kg i.p.; oral: Total amino acids 10 mg/kg, Trigonelline 75 mg/kg, Glyburide 10 mg/kg, Composition 30 mg/kg. From the text:
The animals were fed in the following manner. • 1) Administration of 2 gm/kg of glucose by Inter Peritonially. • 2) Administration of the drug (Orally): [table] […] After centrifugation, the homogenate was characterized by thin layer chromatography and K^+ Ions by Biolyte analyser.

Experiment [3] is described as follows: Comparative hypoglycemic activity of fenugreek seed powder, fenugreek components and the composition. The conditions noted are these: in vivo. An excerpt:
The comparative results of fenugreek seed powder (whole), and the composition of the instant application are shown below to establish inventiveness of the application.
The activity was restricted to only a couple of components. Also, synergy was observed by a selective combination of three components of the composition. The same is elaborated with the help of experimental data as given below.

In experiment [4] the test system is Female wistar rats, sciatic nerve. The experiment is described as follows: Partial sciatic nerve ligation: motor function test, pain scale. In kind it is in vivo, rat. To be noted: 50 mg/kg, scale 0 nil to 5 highly severe. Here is the method:
This experiment is conducted to evaluate the neuropathy effects. • 1. Partial Sciatic Nerve Ligation • 2. Formalin Induced Behavioral And Thermal Hyperalgesia Experiment 1: Partial Sciatic Nerve Ligation Material and Method:— Preparation of Animals:— Animals:—Female wistar rats 175-250 gram (n=6)
(§1) Surgery:—Under ether anesthesia and aseptic conditions the right sciatic nerve was exposed at high thigh level. In sham operated animals the nerve was left intact and the wound was closed with 2 muscle suture and 3-4 skin sutures.
(§2) In experimental animals the sciatic nerve underwent partial injury. The dorsum of the nerve was carefully freed from surrounding connective tissues at a site near the trochanter just distil to the point at which the posterior biceps semitendinosus nerve branches off the common sciatic nerve. Using an irish forceps the nerve was fixed in its place by pinching the epineurium on its dorsal aspect, taking care not to press the nerve against underlying structures. An 4-0 silk suture was inserted into the nerve with ⅜ curved, reverse-cutting mini needle, and tightly ligated so that the dorsal ⅓−½ of the nerve thickness was trapped in the ligature. The wound was then closed as in sham operated rats. In all rats the left leg and sciatic nerve were untouched.
(§3) The animals were divided into following groups:—
(§4) Group 1 Control (vehicle treated) (but nerve not ligated)
(§5) Group 2 Sham treated (vehicle treated)(Surgery done but no ligation of nerve)
(§6) Group 3 Vitamin E acetate (50 mg/kg) (nerve ligated)
(§7) Group 4 Indus test drug (100 mg/kg) (nerve ligated)
(§8) Group 5 Indus test drug (200 mg/kg) (nerve ligated)
• a. Thermal hyperalgesia (TH):—This was assessed using Ugo Basile Hot Plate instrument (at 55±1° C.). Antinociceptive effects were determined according to the latency (in seconds) of limb withdrawal to the noxious thermal simulation (Ugo Basile hot plate, Versace, Italy). […] Motor function test (MFT):—Motor function was monitored by observation of spontaneous gait and hind paw posture. […] The readings were observed on day 0, 2, 15 and 30.

Experiment [5] has the same test system. The experiment is described as follows: Partial sciatic nerve ligation: thermal hyperalgesia (hot plate). In kind it is in vivo, rat. To be noted: 50 mg/kg, nerve ligated. On the procedure: This experiment is conducted to evaluate the neuropathy effects. • 1. Partial Sciatic Nerve Ligation • 2.
as §1, §2, §3, §4, §5, §6, §7, §8
• a. Thermal hyperalgesia (TH):—This was assessed using Ugo Basile Hot Plate instrument (at 55±1° C.). Antinociceptive effects were determined according to the latency (in seconds) of limb withdrawal to the noxious thermal simulation (Ugo Basile hot plate, Versace, Italy). Cut off value of planter test was set to 22 s to prevent limb injury. The pain threshold were tested on day 0, 2, 4, 6, 8, 10, 12, 14, 21 and 28. • b. Motor function test (MFT):—Motor function was monitored by observation of spontaneous gait and hind paw posture. Each animal was placed in a plastic box with plexiglass walls and allowed to habituate for at least 5 minutes before the observation period. […] The readings were observed on day 0, 2, 15 and 30.

Experiment [6] deals with Male wistar rats, kidney. The experiment in a line: Diabetic nephropathy model (Alloxan plus left renal artery clamping). It is filed as in vivo, rat. On the procedure: Male wistar rats of 150-200 gram were injected Alloxan (150 mg/kg i.p.) to induce diabetes. Once the animals show blood sugar above 250 mg/dl, animals are divided in groups as mentioned below and dosing of same is started as per groups. After 7 days of dosing in test drug groups and 3 days dosing in insulin group surgery is performed. In all groups animals were anesthetized and a small midline incision was made to isolate left renal artery and clamped for 30 minutes after which animals were stitched back. This is a kidney ligation technique to induce diabetic nephropathy in experimental animals. In Group 1, complete procedure was same but no treatment is given. The animals were then allowed to recover and dosing was continued as per given in various groups till day 30th after surgery. Creatinine clearance was noted on 0th, 10th, 20th and 30th day. After 30 days animals were sacrificed and kidney was sent for histopathological evaluation. Group 1 Saline (untreated) Group 2 Test drug (low dose) Group 3 Test drug (medium dose) Group 4 Test drug (high dose) Group 5 Standard (insulin)

Take `COc1ccc(Cl)cc1C(=O)NCCc1ccc(S(=O)(=O)NC(=O)NC2CCCCC2)cc1` [Glyburide]: in experiment [1], the “K+ Ions (μ Mol)” value worked out at 22.5 μ Mol. Moreover, in experiment [2], the “BSL after 1 hour” value is 251 mg/dL and the “BSL at 0 hrs” value was determined as 365 mg/dL.

For the compound `C[n+]1cccc(C(=O)[O-])c1` [Trigonelline], the “K+ Ions (μ Mol)” value in experiment [1] is recorded as 21.8 μ Mol. Besides, the “Hypoglycemic activity (%)” value in experiment [3] came to 31%. Besides, in experiment [2], the “BSL after 1 hour” value is 233 mg/dL and the “BSL at 0 hrs” value was determined as 341 mg/dL.

Turning to `CC(=O)Oc1c(C)c(C)c2c(c1C)CCC(C)(CCC[C@H](C)CCC[C@H](C)CCCC(C)C)O2` (some centres unmarked) [Vitamin E, Vitamin E acetate], the “Motor function test, Pain scale” value in experiment [4] (0th day) is 0; in experiment [4] (2nd day), 2.77; in experiment [4] (15th day), 1.25. In addition, the “Thermal hyperalgesia, latency of limb withdrawal” value was found to be 9.51 s in experiment [5] (0th day (before ligation)); 3.24 s in experiment [5] (2nd day); 5.9 s in experiment [5] (4th day); 7.12 s in experiment [5] (6th day); 7.95 s in experiment [5] (8th day); 9.81 s in experiment [5] (10th day). Besides, the “Thermal hyperalgesia, latency of limb withdrawal” value in experiment [5] (12th day) stood at 9.88 s; in experiment [5] (14th day), 10.04 s.

Turning to insulin: Standard in nephropathy model, the “Histopathology of the kidney: cellularity and matrix” value in experiment [6] (insulin group) was “did not show any increase in cellularity and matrix”. Further, the “Histopathology of the kidney: tubular necrosis, interstitial fibrosis” value in experiment [6] (insulin treated group) is reported as “very mild”.
